Like-named read-outs stand apart in the source and are kept apart here.

Experiment [1] concerns the target T1, human cloned 5-HT2A receptor, expressed in L929 cells (Homo sapiens, UniProt P28223).
T1 construct: expressed in transfected cells; host or cells: L929 cells
The experiment can be described thus: In vitro radioligand binding affinity for 5-HT2A receptor ([125I]R91150). How it is done:
The interaction of the compounds of Formula (I) with 5-HT2A and 5-HT2C receptors was assessed in in vitro radioligand binding experiments. In general, a low concentration of a radioligand with a high binding affinity for the receptor is incubated with a sample of a tissue preparation enriched in a particular receptor (1 to 5 mg tissue) in a buffered medium (0.2 to 5 ml). During the incubation, the radioligands bind to the receptor. When equilibrium of binding is reached, the receptor bound radioactivity is separated from the non-bound radioactivity, and the receptor bound activity is counted. The interaction of the test compounds with the receptors is assessed in competition binding experiments. Various concentrations of the test compound are added to the incubation mixture containing the tissue preparation and the radioligand. Binding of the radioligand will be inhibited by the test compound in proportion to its binding affinity and its concentration. The affinities of the compounds for the 5-HT2 receptors were measured by means of radioligand binding studies conducted with: (a) human cloned 5-HT2A receptor, expressed in L929 cells using [^125I]R91150 as radioligand and (b) human cloned 5-HT2C receptor, expressed in CHO cells using [^3H]mesulergine as radioligand.

Another experiment concerns the target T2, NET (Rattus norvegicus, UniProt Q9WTR4).
T2 construct: Cortex from rat brain was collected and homogenised; from tissue; host or cells: rat brain cortex membranes
The experiment can be described thus: In vitro determination of NET reuptake inhibition ([3H]Nixosetine binding, rat brain cortex membranes). How it is done: Cortex from rat brain was collected and homogenised using an Ultra-Turrax T25 and a Dual homogeniser in ice-cold homogenising buffer containing Tris, NaCl and KCl (50 mM, 120 mM and 5 mM, respectively, pH 7.4) prior to dilution to an appropriate protein concentration optimised for specific and non-specific binding. […] Membrane-bound activity was detected by filtration through a Packard Filtermate harvester onto GF/B Unifilterplates, washed with ice-cold Tris-HCl buffer, containing NaCl and KCl (50 mM, 120 mM and 4 mM; pH 7.4; 6×0.5 ml). Filters were allowed to dry for 24 h before adding scintillation fluid. Scintillation fluid was allowed to saturate filters for 24 h before counting in a Topcount scintillation counter. Percentage specific bound and competition binding curves were calculated using S-Plus software (Insightful).

The target of experiment [2] is T3, human cloned 5-HT2C receptor, expressed in CHO cells (Homo sapiens, UniProt P28335).
T3 construct: expressed in transfected cells; host or cells: CHO cells
T3 sequence (P28335 33-458): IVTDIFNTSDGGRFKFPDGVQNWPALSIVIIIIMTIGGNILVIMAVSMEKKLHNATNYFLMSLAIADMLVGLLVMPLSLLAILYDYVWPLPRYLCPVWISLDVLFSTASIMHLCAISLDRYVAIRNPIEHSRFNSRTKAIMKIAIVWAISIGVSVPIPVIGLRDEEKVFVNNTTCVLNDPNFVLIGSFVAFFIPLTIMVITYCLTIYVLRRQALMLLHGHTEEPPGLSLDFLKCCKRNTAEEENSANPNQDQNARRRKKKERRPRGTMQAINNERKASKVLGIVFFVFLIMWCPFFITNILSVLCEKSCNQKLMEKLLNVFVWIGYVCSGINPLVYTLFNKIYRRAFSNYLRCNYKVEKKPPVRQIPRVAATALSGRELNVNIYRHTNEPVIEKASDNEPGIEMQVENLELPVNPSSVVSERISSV
The experiment can be described thus: In vitro radioligand binding affinity for 5-HT2C receptor ([3H]mesulergine). As to conditions: human cloned 5-HT2C receptor in CHO cells, [3H]mesulergine; read-out: h-5HT2C (converted). On the procedure: The interaction of the compounds of Formula (I) with 5-HT2A and 5-HT2C receptors was assessed in in vitro radioligand binding experiments. […] During the incubation, the radioligands bind to the receptor. When equilibrium of binding is reached, the receptor bound radioactivity is separated from the non-bound radioactivity, and the receptor bound activity is counted. The interaction of the test compounds with the receptors is assessed in competition binding experiments. Various concentrations of the test compound are added to the incubation mixture containing the tissue preparation and the radioligand. Binding of the radioligand will be inhibited by the test compound in proportion to its binding affinity and its concentration.

The mark [3] stands for this setting: human cloned 5-HT2A receptor in L929 cells, [125I]R91150, read-out: h-5HT2A (converted).

T1 sequence (P28223 whole entry): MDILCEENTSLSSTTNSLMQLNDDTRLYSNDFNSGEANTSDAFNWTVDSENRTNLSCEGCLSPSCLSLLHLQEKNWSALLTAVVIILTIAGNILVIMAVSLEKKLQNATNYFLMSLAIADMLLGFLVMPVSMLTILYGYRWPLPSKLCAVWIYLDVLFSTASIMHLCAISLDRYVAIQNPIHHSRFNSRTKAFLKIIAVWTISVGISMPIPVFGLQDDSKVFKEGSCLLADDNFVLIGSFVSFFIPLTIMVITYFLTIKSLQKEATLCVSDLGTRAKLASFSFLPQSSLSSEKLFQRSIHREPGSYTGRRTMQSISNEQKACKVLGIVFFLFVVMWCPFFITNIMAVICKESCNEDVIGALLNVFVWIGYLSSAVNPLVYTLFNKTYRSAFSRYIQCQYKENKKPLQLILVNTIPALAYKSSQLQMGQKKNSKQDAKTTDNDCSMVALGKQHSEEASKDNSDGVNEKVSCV
T2 sequence (Q9WTR4 1-597): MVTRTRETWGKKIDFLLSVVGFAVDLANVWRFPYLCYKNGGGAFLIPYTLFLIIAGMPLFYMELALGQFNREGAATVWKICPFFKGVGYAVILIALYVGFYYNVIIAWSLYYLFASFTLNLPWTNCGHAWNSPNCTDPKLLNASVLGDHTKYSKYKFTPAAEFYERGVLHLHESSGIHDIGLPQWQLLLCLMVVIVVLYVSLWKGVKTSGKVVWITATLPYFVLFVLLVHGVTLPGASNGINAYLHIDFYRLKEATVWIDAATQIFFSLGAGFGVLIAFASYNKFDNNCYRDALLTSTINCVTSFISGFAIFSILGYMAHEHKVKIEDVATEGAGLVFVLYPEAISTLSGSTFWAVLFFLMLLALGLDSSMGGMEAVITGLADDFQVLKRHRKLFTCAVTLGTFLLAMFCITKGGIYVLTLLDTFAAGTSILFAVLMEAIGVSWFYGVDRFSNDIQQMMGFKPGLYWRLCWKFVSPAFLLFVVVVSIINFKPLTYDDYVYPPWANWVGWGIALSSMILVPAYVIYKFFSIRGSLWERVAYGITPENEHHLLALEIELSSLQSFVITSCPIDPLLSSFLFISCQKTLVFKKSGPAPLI

As for `CN1CC(=O)N2[C@H](C[C@@H]3c4ccccc4Cc4ccc(F)cc4[C@H]32)C1` [compound 13, (5aS,14bR,15aR)-7-fluoro-2-methyl-1,2,3,5a,10,14b,15,15a-octahydro-4H-dibenzo-[3′,4′:6′,7′]cyclohepta[1′,2′:4,5]pyrrolo[1,2-a]pyrazin-4-one], in experiment [1], the IC50 was 0.0871 µM. In addition, the “NET Reuptake Inhibition” value at NET is reported as less than 5.

Regarding `CN(C)C[C@@H]1C[C@@H]2c3ccccc3Cc3ccc(F)cc3[C@H]2[S@+]1[O-]` [compound 25, [(2S,3aR,12bS)-11-fluoro-1-oxido-3,3a,8,12b-tetrahydro-2H-dibenzo[3,4:6,7]cyclohepta[1,2-b]thien-2-yl]-N,N-dimethylmethanamine], the IC50 was 2.24 µM in experiment [2], more than 10 µM in experiment [1] (setting [3]) and 2.88 µM on NET.

With `Fc1ccc2c(c1)[C@H]1N[C@@H](CN3CCOCC3)C[C@@H]1c1ccccc1C2` [compound 42, (2R,3aR,12bS)-11-fluoro-2-(4-morpholinylmethyl)-1,2,3,3a,8,12b-hexahydrodibenzo-[3,4:6,7]cyclohepta[1,2-b]pyrrole], the IC50 is 0.55 µM in experiment [2], 0.631 µM in experiment [1] (setting [3]) and 5.5 µM at NET.

For the molecule `CN(C)C[C@@H]1C[C@@H]2c3ccccc3Cc3ccc(F)cc3[C@H]2S1(=O)=O` [compound 22, [(2S,3aR,12bS)-11-fluoro-1,1-dioxido-3,3a,8, 12b-tetrahydro-2H-dibenzo[3,4:6,7]-cyclohepta[1,2-b]thien-2-yl]-N,N-dimethylmethanamine], the figures for the IC50 (in experiment [2]; in experiment [1] (setting [3]); on NET) were 1.35 µM, 8.51 µM and 4.79 µM, respectively.

In the case of `CN(C)CC1CO[C@H]2c3cc(F)ccc3Cc3ccccc3[C@@H]12` (mixture of isomers) [compound 48, [(3aR,12bR)-11-fluoro-3,3a,8,12b-tetrahydro-2H-dibenzo[3,4:6,7]cyclohepta[1,2-b]-furan-3-yl]-N,N-dimethylmethanamine], the IC50 in experiment [2] was 3.02 µM; in experiment [1] (setting [3]) it was 6.17 µM; at NET it was 0.224 µM.

As to `OCCN1CCN(C[C@H]2C[C@@H]3c4ccccc4Cc4ccc(F)cc4[C@H]3N2)CC1` [43a, 2-(4-{[(2R,3aR,12bS)-11-fluoro-1,2,3,3a,8,12b-hexahydrodibenzo[3,4:6,7]cyclohepta-[1,2-b]pyrrol-2-yl]methyl}-1-piperazinyl)ethanol], the IC50 in experiment [2] is 0.407 µM; in experiment [1] (setting [3]), 0.427 µM; on NET it was more than 10 µM.

As for `CN(C)C[C@H]1C[C@@H]2c3ccccc3Cc3ccc(F)cc3[C@H]2[S@+]1[O-]` [compound 28, [(2R,3aR,12bS)-11-fluoro-1-oxido-3,3a,8,12b-tetrahydro-2H-dibenzo[3,4:6,7]cyclohepta[1,2-b]thien-2-yl]-N,N-dimethylmethanamine], the IC50 in experiment [2] is 1.78 µM; in experiment [1] (setting [3]) it was 7.76 µM; at NET, 0.145 µM.

For `CN[C@@H]1CO[C@@H]2c3cc(F)ccc3Cc3ccccc3[C@H]2C1` (relative stereo) [compound 35, (3S*,4aR*,13bS*)-12-fluoro-N-methyl-2,3,4,4a,9,13b-hexahydrodibenzo[3,4:6,7]-cyclohepta[1,2-b]pyran-3-amine], the figures for the IC50 (in experiment [2]; on NET) were 2.63 µM and more than 1 µM, respectively.

As for `CN(C)CC1CO[C@@H]2c3cc(F)ccc3Cc3ccccc3[C@@H]12` (mixture of isomers) [compound 47, [(3aR,12bS)-11-fluoro-3,3a,8,12b-tetrahydro-2H-dibenzo[3,4:6,7]cyclohepta[1,2-b]-furan-3-yl]-N,N-dimethylmethanamine], the IC50 in experiment [2] was 1.58 µM; in experiment [1] (setting [3]), 3.8 µM; on NET it was 0.011 µM.

These data come from patent US20090023721A1, “Novel Substituted Tetracyclic Tetrahydrofuran, Pyrrolidine and Tetrahydrothiophene Derivatives and Their Use as a Medicament” (priority 2005, published 2009).
